± gives the expanded uncertainty stated by the source.
Columns and labels:
[1] = Molar enthalpy of transition or fusion
[2] = Closed cell (Static) method; for Normal melting temperature: Crystal 1

Molar enthalpy of transition or fusion ([1]; Crystal 1, Closed cell (Static) method) | SMILES | Normal melting temperature [2] | vapor or sublimation pressure ([2]; 356.86 K, Liquid) | Molar enthalpy of transition or fusion ([1]; Crystal, DSC)
5.43 kcal/mol | CC(O)CNCC(C)O (stereo not given) [N-(2-hydroxypropyl)-2-hydroxy-1-propanamine] | 42.7 °C | – | –
– | CN(CCO)CCO [N-methyldiethanolamine] | -23 °C | 0.2 kPa | –
– | CC(C)NC(C)C [diisopropylamine] | – | – | 5.43 ± 0.172 kcal/mol
